Laboratory results reported in patent US7868022B2, “2-amino-quinoline derivatives useful as inhibitors of β-secretase (BACE)” (Janssen Pharmaceutica NV, priority 2006, dated 2011).

Tests used:
Assay type in all cases: biochemical
β-secretase (BACE) [1] = biological target: T1, β-secretase (BACE) (Homo sapiens, UniProt P56817); assay: In Vitro BACE FS1 % Inhibition Assay (Example 15); settings: FS1 substrate
T1 construct: purchased Panvera
Protocol: (§1) The following reagents were used in this assay: sodium acetate, PEG8000 (Sigma), DMSO, HEPES, FS1 substrate [R(AedensE)[…]-(DabcylK)R], β-secretase (BACE) (Panvera), and 96-well plate (HE microplate, Molecular Devices).
(§2) The following assay buffers were prepared and used in this assay: (1) enzyme assay buffer (0.05 M sodium acetate, pH5, 0.1% PEG8000 (w/v)), (2) substrate assay buffer (0.05 M sodium acetate, pH5), and (3) compound vehicle (30% DMSO in 50 mM HEPES, pH 7.4).
(§3) The FS1-substrate stock solution was prepared in DMSO as a 10 mg/mL solution. The FS1-substrate working solution was prepared by diluting the 10 mg/mL stock solution with substrate assay buffer to a final concentration of 300 μg/mL. The β-secretase (BACE) working solution was prepared by diluting a 0.83 mg/mL BACE stock solution with enzyme assay buffer to a final concentration of 4 μg/mL.
Test compounds were dissolved in DMSO to 10 mM. Compounds were further diluted in vehicle to various concentrations in the range of 405 μM to 4.05 μM (13.5× final compound concentration in screening plate).
The screening procedure for this assay was as follows: 15 μL of BACE working solution was pipetted into each well of a 96-well plate. To each well was then pipetted 2 μL of test compound at the selected concentration. Test compound and BACE were then mixed with a pipettor and incubated for 20 min at room temperature. To each well was then added 10 μL of the FS1 substrate working solution. The plates were then incubated for 1 hour at room temperature. The fluorescence for each well was then measured on an LJL analyst (Ex 360 nm/Em 530 nm).
The procedure for the blank (negative control) was as follows. 15 μL of assay buffer was pipetted into each well to be used as a blank control. To each well was then added 2 μL of vehicle and 10 μL of FS1-substrate working solution. The plates were then incubated for 1 hour at room temperature. The fluorescence was measured on an LJL analyst (Ex 360 nm/Em 530 nm).
The procedure for the positive control was as follows: 15 μL of BACE working solution was pipetted into each well to be used as a positive control. To each well was then pipetted 2 μL of vehicle. Vehicle and BACE were then mixed with a pipettor and incubated for 20 min at room temperature. To each well was then added 10 μL of the FS1 substrate working solution. The plates were then incubated for 1 hour at room temperature. The fluorescence (Fl) was then measured on an LJL analyst (Ex 360 nm/Em 530 nm).
For test compounds, % inhibition was determined at each concentration as follows:
% Inhibition values of less than 30% were indistinguishable from control and are listed as ≦30% in the Table below. % Inhibition values greater than 100% were indistinguishable from 100% within the error of the measurement.

β-secretase (BACE) [2] = biological target: T1, β-secretase (BACE); assay: In Vitro BACE Assay, Ki (Example 16); settings: FS1 substrate, pH5
Protocol: as §1, §2, §3
Test compounds were dissolved in DMSO at 10 mM.
The procedure for this assay was as follows: 15 μL of BACE working solution was pipetted into each well of a 96-well plate. To each well was then pipetted 2 μL of test compound at the selected concentration. Test compound and BACE were then mixed with a pipettor and incubated for 20 min at room temperature. […] The fluorescence for each well was then measured on a Polarstar fluorometer (Ex 390 nm/Em 520 nm) for 20 min at room temperature, reading fluorescence at 1 min intervals.
The procedure for the positive control was as follows: 15 μL of BACE working solution was pipetted into each well to be used as a positive control. […] The fluorescence was then measured on a Polarstar fluorometer (Ex 390 nm/Em 520 nm) for 20 min at room temperature, reading fluorescence at 1 min intervals.
For test compounds, Ki inhibition was determined as follows: For each compound concentration and positive control, rate of cleavage of substrate (Vi, where i=compound concentration in μM) was determined as Δ Fluorescence/Δ time (min). […] The Ki was then determined by fitting the following equation to the graph of [I] vs Vi Y=aVmax/(50+24*(1+X/Ki)),

human BACE-1 = human BACE-1 (Homo sapiens, UniProt P56817); assay: In Vitro BACE Assay run by CEREP (Example 19); settings: recombinant enzyme; for inhibition at 1 µM: pH 4.5, 1.0 μM compound; for IC50: pH 4.5; for inhibition at 10 µM: pH 4.5, 10.0 μM compound
Protocol: This assay was run by CEREP (Catalog Ref. 761-B, Referred to SOP No. 1C131; ERMOLIEFF, J., LOY, J. A., KOELSCH, G. and TANG, J., Proteolytic activation of recombinant pro-memapsin 2 (pro-BACE) studied with new fluorogenic substrates, Biochemistry, (2000) Vol. 39, p. 12450).
More specifically the assay, run at 50 μL in a 96 well plate, evaluated the effect of test compound on the activity of the human BACE-1 quantified by measuring the formation of Mca-S-E-V—N-L-NH2 from Mca-S-E-V—N-L-D-A-E-F—R—K(Dnp)-R—R—NH2, using a recombinant enzyme.
The test compound, reference compound or water (control) was added to a buffer containing 0.09 M sodium acetate (pH 4.5) and 0.25 μg BACE-1. Compound interference with the fluorimetric detection method due to autofluorescence was then checked by measurements at the wavelengths defined to evaluate the enzyme activity. Thereafter, the reaction was initiated by adding 7.5 μM of the substrate Mca-S-E-V—N-L-D-A-E-F—R—K(Dnp)-R—R—NH2 and the mixture was incubated for 60 min at 37° C. For control basal measurement, the substrate was omitted from the reaction mixture. Immediately after the incubation, the fluorescence intensity emitted by the reaction product Mca-S-E-V—N-L-NH2 was measured at λex=320 nm and λem=405 nm using a microplate reader (Ultra, Tecan). The standard inhibitory reference compound was OM99-2, which was tested in each experiment at several concentrations to obtain an inhibition curve from which its IC50 value was calculated.

T1 sequence (P56817 46-501): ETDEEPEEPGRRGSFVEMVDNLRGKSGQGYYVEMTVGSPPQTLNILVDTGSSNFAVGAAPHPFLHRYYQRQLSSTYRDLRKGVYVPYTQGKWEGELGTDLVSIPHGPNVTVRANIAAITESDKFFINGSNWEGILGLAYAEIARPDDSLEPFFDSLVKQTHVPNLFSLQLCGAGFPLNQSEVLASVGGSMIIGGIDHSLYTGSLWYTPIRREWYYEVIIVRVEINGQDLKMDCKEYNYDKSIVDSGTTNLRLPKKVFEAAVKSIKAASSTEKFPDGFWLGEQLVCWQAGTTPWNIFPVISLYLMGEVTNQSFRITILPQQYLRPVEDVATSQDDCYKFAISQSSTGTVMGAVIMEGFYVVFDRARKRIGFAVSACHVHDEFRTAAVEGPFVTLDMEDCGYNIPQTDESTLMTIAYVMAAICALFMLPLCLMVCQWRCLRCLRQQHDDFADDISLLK
human BACE-1, sequence (P56817 46-501): as above

SMILES | inhibition at 1 µM (human BACE-1) | IC50 (human BACE-1) | inhibition at 10 µM (human BACE-1) | also measured
Cn1ccnc1CN(CCCC(c1cc2cc(Oc3ccccc3)ccc2nc1N)C1CCOCC1)CCC(C)(C)C (stereo not shown) [Example 11, 3-[4-[(3,3-dimethyl-butyl)-(1-methyl-1H-imidazol-2-ylmethyl)-amino]-1-(tetrahydro-pyran-4-yl)-butyl]-6-phenoxy-quinolin-2-ylamine] | – | – | – | % Inhibition @ 0.3 μM (β-secretase (BACE) [1]; 0.3 μM compound): −6%; % Inhibition @ 1 μM (β-secretase (BACE) [1]; 1 μM compound): 5%; % Inhibition @ 3 μM (β-secretase (BACE) [1]; 3 μM compound): 81%
Nc1nc2ccc(Oc3ccccc3)cc2cc1CCC(=O)NC1C2CC3CC(C2)CC1C3 (stereo not shown) [compound 2] | – | – | – | inhibition at 0.3 µM (β-secretase (BACE) [1]; 0.3 μM compound): 45%; inhibition at 1 µM (β-secretase (BACE) [1]; 1 μM compound): 78%; inhibition at 3 µM (β-secretase (BACE) [1]; 3 μM compound): 107%; Ki (β-secretase (BACE) [2]): 230 nM
Nc1nc2ccc(Oc3ccccc3)cc2cc1C(CCC(=O)NC1C2CC3CC(C2)CC1C3)C1CCCCC1 (stereo not shown) [compound 15] | – | – | – | inhibition at 0.3 µM (β-secretase (BACE) [1]; 0.3 μM compound): 43%; inhibition at 1 µM (β-secretase (BACE) [1]; 1 μM compound): 58%; inhibition at 3 µM (β-secretase (BACE) [1]; 3 μM compound): 78%; Ki (β-secretase (BACE) [2]): 280 nM
Nc1nc2ccc(Oc3ccccc3)cc2cc1C(CCC(=O)NC1C2CC3CC(C2)CC1C3)C1CCOCC1 (stereo not shown) [compound 24] | – | – | – | inhibition at 0.3 µM (β-secretase (BACE) [1]; 0.3 μM compound): 56%; inhibition at 1 µM (β-secretase (BACE) [1]; 1 μM compound): 103%; inhibition at 3 µM (β-secretase (BACE) [1]; 3 μM compound): 132%; Ki (β-secretase (BACE) [2]): 66 nM
CN(C(=O)CCCC(c1cc2cc(Oc3ccccc3)ccc2nc1N)C1CCCCC1)C1CCCCC1 (stereo not shown) [compound 40] | 54% | 650 nM | – | inhibition at 0.3 µM (human BACE-1; pH 4.5, 0.3 μM compound): 13%
Nc1nc2ccc(Oc3ccccc3)cc2cc1C(CCC(=O)N(CCO)C1CCCCC1)C1CCOCC1 (stereo not shown) [compound 50] | 87% | 740 nM | – | –
CN(CC1CCCCC1)C(=O)CC[C@H](c1cc2cc(Oc3ccccc3)ccc2nc1N)C1CCOCC1 [compound 84] | 96% | 360 nM | – | –
CN(CCC[C@H](c1cc2cc(Oc3ccccc3)ccc2nc1N)C1CCOCC1)CC1CCCCC1 [compound 85] | – | 340 nM | 98% | –
CCOC(=O)C(COCc1ccccc1)NCCCC(c1cc2cc(Oc3ccccc3)ccc2nc1N)C1CCOCC1 (stereo not shown) [compound 89] | – | 690 nM | 85% | –
Nc1nc2ccc(Oc3ccccc3)cc2cc1C(CCCC(=O)N(CCN1CCOCC1)C1CCCCC1)C1CCOCC1 (stereo not shown) [compound 90] | – | 1700 nM | 94% | –
Nc1nc2ccc(Oc3ccccc3)cc2cc1C(CCCC(=O)N(CCN1CCCC1)C1CCCCC1)C1CCOCC1 (stereo not shown) [compound 91] | – | 1100 nM | 86% | –
CC(C)C(CO)NCCCC(c1cc2cc(Oc3ccccc3)ccc2nc1N)C1CCOCC1 (stereo not shown) [compound 96] | – | 1700 nM | 83% | –
COc1cc2nc(N)c(C(CCC(=O)NCCC(C)(C)C)C3CCOCC3)cc2cc1Oc1ccccc1 (stereo not shown) [compound 100] | – | 370 nM | 72% | –
COc1cc2nc(N)c(C(CCC(=O)N(CCN3CCOCC3)C3CCCCC3)C3CCOCC3)cc2cc1Oc1ccccc1 (stereo not shown) [compound 107] | – | 360 nM | 89% | –
COc1cc2nc(N)c(C(CCCN(CCN3CCOCC3)C3CCCCC3)C3CCOCC3)cc2cc1Oc1ccccc1 (stereo not shown) [compound 108] | – | 360 nM | 95% | –
CC(C)(C)n1cc(CC(c2cc3cc(Oc4ccccc4)ccc3nc2N)C2CCOCC2)nn1 (stereo not shown) [compound 150] | 12% | 3300 nM | – | –
CC(C)(C)c1cc(CC(c2cc3cc(Oc4ccccc4)ccc3nc2N)C2CCOCC2)on1 (stereo not shown) [compound 152] | 53% | 560 nM | – | –
Nc1nc2ccc(Oc3ccccc3)cc2cc1C(Cc1cn(C23CC4CC(CC(C4)C2)C3)nn1)C1CCOCC1 (stereo not shown) [compound 153] | 46% | 670 nM | – | –
Nc1nc2ccc(Oc3ccccc3)cc2cc1C(CCc1cn(C23CC4CC(CC(C4)C2)C3)nn1)C1CCOCC1 (stereo not shown) [compound 155] | 67% | 2200 nM | – | –

Continued, in another order:

inhibition at 1 µM (human BACE-1) | IC50 (human BACE-1) | inhibition at 10 µM (human BACE-1) | SMILES | also measured
75% | 340 nM | – | Nc1nc2ccc(Oc3ccccc3)cc2cc1[C@@H](CCC(=O)NCC1CC1)C1CCOCC1 [compound 78] | –
89% | 290 nM | – | CC(C)(C)CCNC(=O)CC[C@H](c1cc2cc(Oc3ccccc3)ccc2nc1N)C1CCOCC1 [compound 79] | –
85% | 210 nM | – | CC(C)(C)CCNC(=O)CCC[C@H](c1cc2cc(Oc3ccccc3)ccc2nc1N)C1CCOCC1 [compound 82] | –
100% | 220 nM | – | Cn1ccnc1CN(CCC(C)(C)C)C(=O)CC[C@H](c1cc2cc(Oc3ccccc3)ccc2nc1N)C1CCOCC1 [compound 86] | –
– | 260 nM | 99% | Cn1ccnc1CN(CCC(C)(C)C)C(=O)CCCC(c1cc2cc(Oc3ccccc3)ccc2nc1N)C1CCOCC1 (stereo not shown) [compound 87] | –
– | 86 nM | 95% | CC(C)(C)CCN(CCCC(c1cc2cc(Oc3ccccc3)ccc2nc1N)C1CCOCC1)CCN1CCCC1 (stereo not shown) [compound 93] | –
– | 82 nM | 95% | Cn1ccnc1CN(CCCC(c1cc2cc(Oc3ccccc3)ccc2nc1N)C1CCOCC1)C1CCCCC1 (stereo not shown) [compound 94] | –
– | 120 nM | 95% | COC(=O)C(COCc1ccccc1)NCCCC(c1cc2cc(Oc3ccccc3)ccc2nc1N)C1CCOCC1 (stereo not shown) [compound 95] | –
– | 290 nM | 85% | COc1cc2nc(N)c(C(CCC(=O)N(C)C3CCCCC3)C3CCOCC3)cc2cc1Oc1ccccc1 (stereo not shown) [compound 101] | –
– | 270 nM | 97% | CCOc1cc2nc(N)c(C(CCC(=O)NCCC(C)(C)C)C3CCOCC3)cc2cc1Oc1ccccc1 (stereo not shown) [compound 102] | –
90% | 310 nM | – | CC(C)(C)Cc1cc(CC(c2cc3cc(Oc4ccccc4)ccc3nc2N)C2CCOCC2)on1 (stereo not shown) [compound 151] | –
85% | 310 nM | – | CC(C)(C)c1cc(CCC(c2cc3cc(Oc4ccccc4)ccc3nc2N)C2CCOCC2)on1 (stereo not shown) [compound 156] | –
